The values below come from article PMC10217546, “Antioxidant Activities of Dihydromyricetin Derivatives with Different Acyl Donor Chain Lengths Synthetized by Lipozyme TL IM” (Foods, 2023).

Molecules are shown by their SMILES. Read-outs that look alike come from different tables or passages of the source. Marks after values point to notes of the source that are not given here.

Data set [1] can be described thus: Partition coefficient of lipids and water (log P), n-octanol/water by HPLC. The format is physicochemical. The method, then:
The lipophilicity of DHM and its derivatives was evaluated using log P, which was determined by a previous method with several modifications. Two milligrams of sample were dissolved in n-octanol solution (4 mL) saturated by water and analyzed using HPLC at 298 nm (A0). The n-octanol solution (1 mL) saturated by water containing the sample was mixed with water solution (1 mL) saturated by n-octanoland and then shaken using a constant-temperature water bath oscillator (Tianjin, China) at 30 °C for 24 h at 150 rpm. The ultraviolet absorbance of the upper solution was analyzed at 298 nm (Ax). The calculation equation of log P is as follows:(1) log P=log Ax / (A0 − Ax)

Data set [2] is described as follows: DPPH radical scavenging ability. To be noted: for IC50 DPPH: DPPH radical scavenging test; for scavenging rate of DPPH free radicals: sample concentration 20 μg/mL, 30 min in the dark, 517 nm. The procedure: The method used to determine the abilities of DHM and its acylated derivatives was a previous method with some modifications. Two milliliters of DPPH (0.065 mg/mL) and 2 mL of the sample (3, 5, 10, 15, and 20 μg/mL) were added to a centrifuge tube and described at 517 nm after 30 min of reaction in a dark environment. Vc (a water-soluble antioxidant) and TBHQ (a lipid soluble antioxidant) were used as controls. (2) DPPH radical scavenging activity (%) =(1−A1 - A2/A0) × 100 where A0, A1, and A2 represent the absorbance values of the DPPH-ethanol, DPPH-sample, and sample-ethanol mixtures, respectively.

Data set [3] concerns L-02 cells. As to the kind of experiment: Cellular antioxidant activity (CAA) assay in L-02 cells. The format is cell-based, Human. The method, then: Human normal hepatocytes (L-02 cells, passage number 4) were purchased from Cell Bank of Shanghai Institutes for Biological Sciences, Chinese Academy of Sciences (Shanghai, China) and cultured in RPMI 1640 medium (Invitrogen, Carlsbad, CA, USA) supplemented with 10% FBS and 1% penicillin-streptomycin double antibody and were cultured at 37 °C in 5% CO2.
The CAA assay was made using the method of Wolfe and Liu with modifications. L-02 cells were inoculated in black 96-well plates (6 × 10^4 /well, 100 μL) and incubated for 24 h. After removing culture medium, and the cells were washed with PBS and treated with the samples and DCFH-DA (25 μmol/L) for 1 h. Then, the cells were divided into two groups. One group was washed with PBS, and ABAP (600 μmol/L, 100 μL) was added to each well. Another group was only treated with adding 100 μL of ABAP (600 μmol/L) without washing. The black 96-well plates were measured by a Thermo Scientific Fluoroskan Ascent FL (Thermo Fisher Scientific, Waltham, MA, USA) every 5 min for 1 h at an emission wavelength of 538 nm and an excitation wavelength of 485 nm. Three control wells and one blank well were set. The control well was made up of the cells treated with ABAP but without samples, and the blank well was made up of the cells treated without ABAP and samples. Quercetin was used as the positive control. (6) CAA unit=1 - ∫SA/∫CA × 100 where ∫SA represents the area integral under the sample fluorescence value versus time curve and ∫CA represents the area integral under the control fluorescence value versus time curve.

A short description of data set [4]: ABTS radical scavenging ability. Particulars: ABTS radical scavenging test, 30 °C, 6 min, 734 nm. The method, then: The ability of DHM and its acylated derivatives to scavenge ABTS radicals was evaluated using a previous method with some modification. Samples (0.1 mL, 0.01, 0.02, 0.04, 0.06, and 0.08 mg/mL) were added to 3.9 mL of ABTS solution and measured at 734 nm after incubation at 30 °C for 6 min. Vc (a water-soluble antioxidant) and TBHQ (a lipid soluble antioxidant) were used as controls. (3) ABTS radical scavenging activity (%) =(1−A1 - A2/A0) × 100 where A0, A1, and A2 represent the absorbance values of the ABTS-ethanol, ABTS-samples, and samples-ethanol mixtures, respectively.

Setting [5] is: n-octanol/water, shaken at 30 °C for 24 h, HPLC at 298 nm.
Where [6] appears, read: PBS wash between antioxidant and ABAP treatments, read-out: EC50 CAA Unit Wash.
The mark [7] stands for this setting: no PBS wash between antioxidant and ABAP treatments, read-out: EC50 CAA Unit No Wash.
Setting [8] is: Homo sapiens, L02, PBS wash between antioxidant and ABAP treatments, read-out: EC50 CAA Unit Wash.
Setting [9] is: Homo sapiens, L02, no PBS wash between antioxidant and ABAP treatments, read-out: EC50 CAA Unit No Wash.

What is called log P is the decadic logarithm of the partition coefficient of the neutral form, usually between octanol and water. As a reminder, the EC50 is the concentration that produces a half-maximal response. Regarding `CC(=O)OC1C(=O)c2c(O)cc(O)cc2OC1c1cc(O)c(O)c(O)c1` (stereo not drawn) [C2-DHM, 3-O-acetyl-DHM], the “log P” value in data set [1] (setting [5]) came to 1.32. For the same compound, in data set [2], the “IC50 DPPH” value was 9.07 ± 0.10 ^bc μg/mL and the “scavenging rate of DPPH free radicals” value was determined as 92.58 ± 1.33%. Also, the EC50 in data set [3] (setting [6]) stood at 172 ± 8.84 µM. Moreover, in data set [3] (setting [7]), the EC50 is 77.8 ± 3.81 µM. In addition, in data set [4], the “IC50 ABTS” value is 58.29 ± 2.20 ^a μg/mL.
With `CCCC(=O)OC1C(=O)c2c(O)cc(O)cc2OC1c1cc(O)c(O)c(O)c1` (stereo not drawn) [C4-DHM, 3-O-butyryl-DHM], in data set [1], the “log P” value is 1.50. Further, in data set [2], the “IC50 DPPH” value was 9.08 ± 0.25 ^bc μg/mL and the “scavenging rate of DPPH free radicals” value is on record as 92.70 ± 0.79%. Besides, in data set [3] (setting [6]), the half-maximal effective concentration (EC50) came out at 60.7 ± 0.64 µM. In data set [3] (setting [7]), the EC50 stood at 60.8 ± 6.23 µM. For the same compound, the “IC50 ABTS” value in data set [4] was 56.30 ± 1.03 ^a μg/mL.
In the case of `CCCCCC(=O)OC1C(=O)c2c(O)cc(O)cc2OC1c1cc(O)c(O)c(O)c1` (stereo not drawn) [C6-DHM, 3-O-hexanoyl-DHM], the “log P” value in data set [1] (setting [5]) worked out at 1.67. Moreover, in data set [2], the “IC50 DPPH” value is recorded as 11.17 ± 0.04 ^bc μg/mL and the “scavenging rate of DPPH free radicals” value is on record as 82.53 ± 1.98%. Also, in data set [3] (setting [6]), the EC50 was determined as 52.9 ± 2.69 µM. In addition, the EC50 in data set [3] (setting [7]) worked out at 65.2 ± 3 µM. For the same compound, the “IC50 ABTS” value in data set [4] is on record as 77.22 ± 1.46 ^a μg/mL.
`CCCCCCCC(=O)OC1C(=O)c2c(O)cc(O)cc2OC1c1cc(O)c(O)c(O)c1` (stereo not drawn) [C8-DHM, 3-O-octanoyl-DHM]: in data set [1], the “log P” value is on record as 1.73. In data set [2], the “IC50 DPPH” value is 12.69 ± 0.09 ^c μg/mL and the “scavenging rate of DPPH free radicals” value is 74.14 ± 0.40%. Moreover, in data set [3] (setting [6]), the EC50 came out at 35.14 ± 0.29 µM. Also, in data set [3] (setting [7]), the EC50 was 45.4 ± 0.74 µM. In data set [4], the “IC50 ABTS” value is given as 80.15 ± 0.42 ^a μg/mL.
For `CCCCCCCCCCCC(=O)OC1C(=O)c2c(O)cc(O)cc2OC1c1cc(O)c(O)c(O)c1` (stereo not drawn) [C12-DHM, 3-O-lauroyl-DHM], in data set [1], the “log P” value was found to be 1.80. Besides, in data set [2], the “IC50 DPPH” value was 35.93 ± 5.63 ^d μg/mL and the “scavenging rate of DPPH free radicals” value stood at 29.62 ± 4.88%. The EC50 in data set [3] (setting [6]) worked out at 122 ± 9.48 µM. The EC50 in data set [3] (setting [7]) is 234 ± 9.69 µM. The “IC50 ABTS” value in data set [4] is 360.69 ± 50.13 ^b μg/mL.
Broadly, the logP is a log measure of how a compound divides between an organic and an aqueous phase. As for `O=C1c2c(O)cc(O)cc2O[C@H](c2cc(O)c(O)c(O)c2)[C@H]1O` [DHM, Dihydromyricetin], the logP at 24 h in data set [1] (setting [5]) is 0.81. In data set [2], the “IC50 DPPH” value is on record as 9.04 ± 0.09 ^bc μg/mL and the “scavenging rate of DPPH free radicals” value was determined as 93.37 ± 1.83%. Further, the EC50 in data set [3] (setting [8]) worked out at 226 ± 4.67 µM. Moreover, the EC50 in data set [3] (setting [9]) was 90.2 ± 5.02 µM. Moreover, the “IC50 ABTS” value in data set [4] is listed as 46.51 ± 2.19 ^a μg/mL.
For `O=c1c(O)c(-c2ccc(O)c(O)c2)oc2cc(O)cc(O)c12` [Quercetin, reference compound], the EC50 was found to be 29 ± 0.36 µM in data set [3] (setting [8]) and 33.9 ± 3.67 µM in data set [3] (setting [9]).
Turning to `CC(C)(C)c1cc(O)ccc1O` [TBHQ, tert-butylhydroquinone, reference compound], the “IC50 DPPH” value in data set [2] is 7.55 ± 0.18 ^ab μg/mL. Further, the “IC50 ABTS” value in data set [4] is listed as 79.34 ± 3.37 ^a μg/mL.
As to `O=C1O[C@H]([C@@H](O)CO)C(O)=C1O` [Vc, L-ascorbic acid, reference compound], the “IC50 DPPH” value in data set [2] is listed as 4.23 ± 1.38 ^a μg/mL. For the same compound, the “IC50 ABTS” value in data set [4] is 61.02 ± 2.15 ^a μg/mL.
